Test results taken from patent publication US9958436B2, “Determination of cell chirality” (THE TRUSTEES OF COLUMBIA UNIVERSITY IN THE CITY OF NEW YORK, priority 2011, dated 2018).
Entries after “also recorded” stand apart in the source; their conditions may differ.

Assays:
[1] = tested on: C2C12 cells; assay: Effects of culture conditions (substrate protein coating, calcium chelator) on cell chirality; type: cell-based, mouse; details: count of rings
Procedure: An adhesive SAM octadecanethiol (Sigma) was transferred onto the gold-coated (150 Å in thickness) glass slide with the PDMS stamp (see e.g., FIG. 1) (L. Q. Wan et al., Integr Biol (Camb) 2, 346 (Aug. 10, 2010)). The slide was then immersed in a non-adhesive ethylene glycol-terminated SAM (HS-(CH2)11-EG3, Prochimia, Poland) for 3 hours. Finally, patterned surfaces were washed with ethanol and coated with 10 μg/ml fibronectin (Sigma) for 30 minutes.
(§1) Cells were maintained in tissue flasks with culture media specified in TABLE 2. After reaching 70% confluency, cells were trypsinized and seeded onto protein-coated patterned surfaces. Once the cells attached, extra cells were washed off with fresh medium. At this time drugs were added into the culture medium if necessary. Phase contrast images were taken after overnight incubation at 37° C. and 5% CO2 when cells reached confluency on the ring patterns.
(§2) High-resolution phase contrast images of live patterned cells were taken at a resolution of ˜0.645 μm/pixel, and analyzed using a custom-written code in MatLab (MathWorks, Natick, Mass.), based on the automated detection of intensity gradient and circular statistics (W. J. Karlon et al., Ann Biomed Eng 27, 712 (November-December, 1999)). In this algorithm, the intensity gradient was determined pixel by pixel with a Gaussian differential filter. In each sub-region of the image, the dominant local direction was determined using an accumulator scheme, in which the orientation of each pixel follows a von Mises distribution, a circular analogue of the linear normal distribution. Subsequently, the orientation in each sub-region was converted into an angle bias based on its deviation from the circumferential direction (see e.g., FIG. 2C). Mean angle and standard deviation of LR asymmetry were calculated for all sub-regions, using circular statistics (N. I. Fish, Statistical Analysis of Circular Data. (Cambridge University Press, Cambridge, UK, 1993)). […] The sub-region size was therefore set to 20 by 20 pixels (i.e., 13 by 13 μm).
(§3) Cell chirality on ring patterns (i.e., clockwise or counterclockwise alignment) was determined from calculated biased angles in local regions with one sample test for the mean angle, analogous to the one sample t-test in linear statistics (N. I. Fish, Statistical Analysis of Circular Data. (Cambridge University Press, Cambridge, UK, 1993)).
The geometric boundaries determined organelle positioning (i.e., x-axis), with centrosomes (bright green, see e.g., FIG. 4B) and Golgi apparatus (red, see e.g., FIG. 4C) being positioned closer to the boundaries than the cell nucleus (blue) (R. A. Desai, L. Gao, S. Raghavan, W. F. Liu, C. S. Chen, J Cell Sci 122, 905 (Apr. 1, 2009)), independent of the gravitational direction. In addition, cell chirality was maintained on patterns with different surface chemistry, and after the disruption of cadherin function (see e.g., FIG. 1, TABLE 6, TABLE 7).

[2] = tested on: C2C12 cells; assay: Cell chirality (alignment) on micropatterned rings, drug treatment, C2C12; type: cell-based, mouse; details: for CCW: counter-clockwise alignment / CW: clockwise alignment / N/S: not significantly biased to CW or CCW: C2C12 on ring patterns, count of rings
Procedure: as §1
(§4) To examine the role of actin in left-right (LR) asymmetry, cells were tested with 20-500 nM Latrunculin A, 0.05-1.0 μg/ml Cytochalasin D, and 1-100 nM Jasplakinolide. Latrunculin A inhibits actin polymerization by forming a 1:1 molar complex with G-actin, thereby inhibiting its ability to polymerize into F-actin (M. Coue, S. L. Brenner, I. Spector, E. D. Korn, FEBS Lett 213, 316 (Mar. 23, 1987)). Cytochalasin D inhibits actin polymerization by binding to the growing ends of F-actin chains and thus preventing the attachment and addition of G-actin monomers (J. A. Cooper, J Cell Biol 105, 1473 (October, 1987)). Jasplakinolide is known to bind to and stabilize actin filaments in vitro (M. R. Bubb, I. Spector, B. B. Beyer, K. M. Fosen, J Biol Chem 275, 5163 (Feb. 18, 2000)).
(§5) To examine the role of microtubules in LR asymmetry, 0.2-2 μM Nocodazole, and 0.3-30 nM Taxol were used. Nocodazole suppresses microtubule dynamics by destabilizing and disassembling microtubules (J. A. Cooper, J Cell Biol 105, 1473 (October, 1987)). Taxol inhibits the microtubule depolymerization and stabilizes microtubules (W. B. Derry, L. Wilson, M. A. Jordan, Biochemistry 34, 2203 (Feb. 21, 1995)).
To examine the role of the actomyosin motor, cells were tested with […], […], and 0.5-10 […]. Y-27632 works as a selective inhibitor to prevent the phosphorylation of the myosin regulatory light chain (T. Ishizaki et al., Mol Pharmacol 57, 976 (May, 2000)). ML-7 acts as a selective inhibitor of the myosin light chain kinase (M. Isemura, T. Mita, K. Satoh, K. Narumi, M. Motomiya, Cell Biol Int Rep 15, 965 (October, 1991)). Blebbistatin forms a low actin affinity complex through binding to myosin heads, causing the inhibition of nonmuscle myosin II ATPase activity (M. Kovacs, J. Toth, C. Hetenyi, A. Malnasi-Csizmadia, J. R. Sellers, J Biol Chem 279, 35557 (Aug. 20, 2004)).
as §2, §3

[3] = tested on: C2C12 cells; assay: Cell polarization by organelle positioning relative to ring boundaries (immunofluorescence); type: cell-based, mouse; details: C2C12 on rings; centrosome vs nucleus position
Procedure: After imaging, cells were fixed with 4% formaldehyde in cytoskeletal buffer (10 mM MES, 138 mM KCl, 3 mM MgCl2, 2 mM EGTA, and 0.32 M sucrose) for 25 minutes. For actin/tubulin double staining, the cells were incubated with phalloidin-TRITC (1:400; Invitrogen) and anti-Tubulin-FITC (1:50; Sigma) for 1 hour. For the Golgi apparatus positioning inside patterned rings, the cells were incubated in 1 μg/ml anti-human golgin-97 (Invitrogen) for 1 hour. After secondary antibodies, cell nuclei were stained with 200 ng/ml 40, 6-diamidino-2-phenylindole (DAPI; Sigma) for 10 minutes. Finally, the cells were mounted with Fluoromount-G medium (SouthernBiotech, Birmingham, Ala.).

[4] = tested on: C2C12 cells; assay: Analysis of cell migration on ring patterns (time-lapse, digital image correlation); type: cell-based, mouse; details: C2C12 treated
Procedure: For time-lapse videos, cells were patterned on a gold-coated glass-bottom Petri dish (ibid, München, Germany). After cells attached, the dish was transferred into an environmental chamber (37° C. and 5% CO2) and image time series were recorded every 5 minutes at a resolution of 1.56 μm/pixel for a total time of 20-40 hours. As the image capture rate is much higher than the characteristic time for cell migration, digital image correlation, together with sub-pixel displacement estimation, were used to determine the displacements of cell migration. A FFT (fast Fourier transform)-based method was first utilized to match regions of two sequential phase contrast images. The calculated displacement values were then used as inputs for a more accurate estimation of displacement fields at a sub-pixel level, using a second-order image correlation algorithm described previously (P. Zhou, K. E. Goodson, Opt Eng 40, 1613 (August, 2001)). To evaluate the bias of cell migration, the obtained velocity field was further projected in the circumferential (Vθ) and radial (Vr) direction.

[5] = tested on: hUVEC cells; assay: Cell chirality (alignment) on micropatterned rings, drug treatment, hUVEC; type: cell-based, human; details: hUVEC on ring patterns, count of rings
Procedure: as §1, §4, §5, §2, §3

[6] = tested on: skin tumor cancer cells; assay: Cell chirality on patterned substrates, skin tumor cancer cells, actin interfering reagent; type: cell-based, human; details: count of patterns
Procedure: as §2, §3
Experiments were conducted to determine whether cancer cell chirality depends on actin function. Skin cancer cells were treated with actin interfering reagent Lantrunculin A at 0 nM (control), 20 nM, 50 nM, 100 nM, or 200 nM.

[7] = calcium chelator added to culture, 0.5 mM
[8] = calcium chelator added to culture, 2 mM
[9] = substrate protein coating of the pattern

**Q.** What does the source list for `O=C(O)CN(CCOCCOCCN(CC(=O)O)CC(=O)O)CC(=O)O` [EGTA]?
**A.** CCW: counter-clockwise alignment [1, 7]: 24; CW: clockwise alignment [1, 7]: 0; N/S: not significantly biased to CW or CCW [1, 7]: 2; CCW: counter-clockwise alignment [1, 8]: 12; CW: clockwise alignment [1, 8]: 1; N/S: not significantly biased to CW or CCW [1, 8]: 3

**Q.** How did the “CCW: counter-clockwise alignment” value [1, 9] turn out when Fibronectin was run?
**A.** The value was 32.

**Q.** And the “CW: clockwise alignment” value [1, 9]?
**A.** Its value is 1.

**Q.** And the “N/S: not significantly biased to CW or CCW” value (“N/S: not significantly biased” for short) [1, 9]?
**A.** Its value is 4.

**Q.** For `C/C1=C/C(=O)O[C@@H]2C[C@@H](CC[C@H](C)/C=C\C=C\CC1)O[C@@](O)([C@@H]1CSC(=O)N1)C2` [Latrunculin A], which “CCW: counter-clockwise alignment” value ([2]; drug 50 nM) is on record?
**A.** The value was 2.

**Q.** And the “CW: clockwise alignment” value ([2]; drug 50 nM)?
**A.** The value was 61.

**Q.** And the “N/S: not significantly biased” value ([2]; drug 50 nM)?
**A.** The value was 15.

**Q.** What about the “CCW: counter-clockwise alignment” value ([2]; drug 200 nM) of the same molecule?
**A.** Its value is 0.

**Q.** And the “CW: clockwise alignment” value ([2]; drug 200 nM)?
**A.** Its value is 57.

**Q.** And the “N/S: not significantly biased” value ([2]; drug 200 nM)?
**A.** Its value is 7.

**Q.** And the “CCW: counter-clockwise alignment” value ([2]; drug 500 nM)?
**A.** Its value is 0.

**Q.** What about the “CW: clockwise alignment” value ([2]; drug 500 nM) of the same molecule?
**A.** Its value is 1.

**Q.** And the “N/S: not significantly biased” value ([2]; drug 500 nM)?
**A.** Its value is 10.

**Q.** And the “effect on chirality of C2C12 cells” value ([2]; low concentrations of the actin treadmilling inhibitors)?
**A.** The value was “reversed the chirality of C2C12 cells from CCW into CW”.

**Q.** And the “effect on cell polarization (organelle positioning relative to boundaries)” value [3]?
**A.** Its value is “did not alter cell polarization; also recorded: does not change the polarity of C2C12 cells”.

**Q.** What about the “direction of cell migration at the boundaries” value ([4]; versus untreated) of the same molecule?
**A.** The value was “reversal at the boundaries”.

**Q.** What about the “cell migration velocity at the ring boundaries” value ([4]; CW along the outer ring and CCW along the inner ring) of the same molecule?
**A.** The value was 15 μm/hr.

**Q.** What about the “CCW: counter-clockwise alignment” value ([5]; drug 20 nM) of the same molecule?
**A.** Its value is 0.

**Q.** And the “CW: clockwise alignment” value ([5]; drug 20 nM)?
**A.** The value was 36.

**Q.** What about the “N/S: not significantly biased” value ([5]; drug 20 nM) of the same molecule?
**A.** Its value is 8.

**Q.** What about the “CCW: counter-clockwise alignment” value ([5]; drug 50 nM) of the same molecule?
**A.** The value was 0.

**Q.** And the “CW: clockwise alignment” value ([5]; drug 50 nM)?
**A.** The value was 2.

**Q.** And the “N/S: not significantly biased” value ([5]; drug 50 nM)?
**A.** Its value is 19.

**Q.** And the “CCW: counter-clockwise alignment” value ([5]; drug 200 nM)?
**A.** The value was 5.

**Q.** What about the “CW: clockwise alignment” value ([5]; drug 200 nM) of the same molecule?
**A.** Its value is 2.

**Q.** And the “N/S: not significantly biased” value ([5]; drug 200 nM)?
**A.** The value was 56.

**Q.** And the “CCW: counter-clockwise alignment” value ([5]; drug 500 nM)?
**A.** Its value is 1.

**Q.** What about the “CW: clockwise alignment” value ([5]; drug 500 nM) of the same molecule?
**A.** Its value is 2.

**Q.** What about the “N/S: not significantly biased” value ([5]; drug 500 nM) of the same molecule?
**A.** Its value is 42.

**Q.** And the “CCW: counter-clockwise alignment” value ([6]; 20 nM)?
**A.** The value was 0.

**Q.** What about the “CW: clockwise alignment” value ([6]; 20 nM) of the same molecule?
**A.** Its value is 21.

**Q.** And the “N/S: not significantly biased” value ([6]; 20 nM)?
**A.** The value was 4.

**Q.** And the “CCW: counter-clockwise alignment” value ([6]; 50 nM)?
**A.** Its value is 1.

**Q.** And the “CW: clockwise alignment” value ([6]; 50 nM)?
**A.** The value was 28.

**Q.** And the “N/S: not significantly biased” value ([6]; 50 nM)?
**A.** The value was 2.

**Q.** What about the “CCW: counter-clockwise alignment” value ([6]; 100 nM) of the same molecule?
**A.** The value was 0.

**Q.** What about the “CW: clockwise alignment” value ([6]; 100 nM) of the same molecule?
**A.** The value was 32.

**Q.** What about the “N/S: not significantly biased” value ([6]; 100 nM) of the same molecule?
**A.** Its value is 0.

**Q.** And the “CCW: counter-clockwise alignment” value ([6]; 200 nM)?
**A.** The value was 2.

**Q.** And the “CW: clockwise alignment” value ([6]; 200 nM)?
**A.** The value was 8.

**Q.** And the “N/S: not significantly biased” value ([6]; 200 nM)?
**A.** The value was 3.

**Q.** Which “CCW: counter-clockwise alignment” value [1, 9] does the source give for Laminin here?
**A.** The value was 34.

**Q.** And the “CW: clockwise alignment” value [1, 9]?
**A.** Its value is 2.

**Q.** What about the “N/S: not significantly biased” value [1, 9] of the same molecule?
**A.** The value was 2.
